Assay results from PubChem BioAssay (NCI).
Several values for one entry are separate records, joined by “and”; a condition that tells them apart may be missing. Equal entries are not always repeated.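 Five compound concentrations were applied to cells in 96-well plates for 48 hours; endpoints were derived by simple linear interpolation of the resulting dose-response curve. GI50 marks 50% less growth. TGI is the concentration that stops growth completely.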

Legend:
Test in all cases: growth of human tumour cells (NCI), 48 h
CCRF-CEM leukemia = test system: CCRF-CEM leukemia
COLO 205 colon = test system: COLO 205 colon
HCT-15 colon = test system: HCT-15 colon
IGROV1 ovarian = test system: IGROV1 ovarian
K-562 leukemia = test system: K-562 leukemia
NCI-H23 lung = test system: NCI-H23 lung
NCI-H522 lung = test system: NCI-H522 lung
SF-295 CNS = test system: SF-295 CNS
SF-539 CNS = test system: SF-539 CNS
UO-31 renal = test system: UO-31 renal

Row | SMILES | GI50 (CCRF-CEM leukemia) | TGI (CCRF-CEM leukemia) | GI50 (COLO 205 colon) | TGI (COLO 205 colon) | GI50 (HCT-15 colon) | TGI (HCT-15 colon) | GI50 (IGROV1 ovarian) | TGI (IGROV1 ovarian) | GI50 (K-562 leukemia) | TGI (K-562 leukemia) | GI50 (NCI-H23 lung) | TGI (NCI-H23 lung) | GI50 (NCI-H522 lung) | TGI (NCI-H522 lung) | GI50 (SF-295 CNS) | TGI (SF-295 CNS) | GI50 (SF-539 CNS) | TGI (SF-539 CNS) | GI50 (UO-31 renal) | TGI (UO-31 renal)
1 | COc1ccc(/C=N\Nc2nc(SCC(C)C)nc(-c3ccc(OC)cc3)c2C#N)cc1 | 9.78 µM | > 100 µM | 3720 nM | 23.4 µM | 11.7 µM | > 100 µM | 1920 nM | 20 µM | 19100 nM | > 100 µM | 12200 nM | 31.7 µM | 11.3 µM | 63.2 µM | 8580 nM | 28 µM | 6.28 µM | 20.1 µM | 1500 nM | 3.73 µM
2 | CN(C)c1nc(N)c(C#N)c(C#N)c1C#N |  | > 10 µM |  | > 10 µM |  | > 10 µM |  | > 10 µM |  | > 7.15 µM |  | > 10 µM |  | 3.8 µM |  | > 10 µM |  | > 10 µM |  | > 10 µM
3 | C=CCN(CC=C)C(=O)[C@H](CC)[C@@H]1CC[C@@H](C)[C@@H]([C@H](C)[C@@H](O)[C@@H](C)C(=O)[C@H](CC)C2O[C@]3(C=C[C@@H](O)[C@]4(CC[C@@](C)([C@H]5CC[C@](O)(CC)[C@H](C)O5)O4)O3)[C@H](C)C[C@@H]2C)O1 (stereo not given in full) | 3.19 µM | 11.5 µM | 2560 nM | 6.23 µM | 2.05 µM | 4.81 µM | 2410 nM | 8.53 µM | 2640 nM | 11 µM | 2480 nM | 6.93 µM | 2.08 µM | 5.68 µM | 1870 nM | 5.23 µM | 1.97 µM | 3.91 µM | 2160 nM | 7.46 µM
4 | CC1(C)[C@H](O)[C@H](F)C[C@@]2(C)Oc3ccc(C(=O)Nc4ccc5c(c4)NC(=O)C54CCN(CCCCC#N)CC4)cc3C[C@H]12 | 0.00949 µM | 5.98 µM and 6.98 µM | 1240 nM and 1140 nM | 3.42 µM and 3.63 µM | 5.43 µM and 1.59 µM | 19.1 µM | 2050 nM and 3630 nM | 34.4 µM | 57.3 nM and 12 nM | 4.81 µM and 1.48 µM | 2440 nM and 2290 nM | 17.8 µM | 1.77 µM and 1.02 µM | 7.86 µM and 2.52 µM | 4.02 nM | 0.0181 µM | 0.00698 µM | 4.77 µM and 2.5 µM | 456 nM and 558 nM | 8.32 µM and 11.4 µM
5 | COc1ccc(S(=O)(=O)N2CCNCC2)cc1OC | > 100 µM | > 100 µM | > 100000 nM | > 100 µM | > 100 µM | > 100 µM | > 100000 nM | > 100 µM | > 100000 nM | > 100 µM | > 100000 nM | > 100 µM | > 100 µM | > 100 µM | > 100000 nM | > 100 µM | > 100 µM | > 100 µM | > 100000 nM | > 100 µM
6 | CC1=NNC(=S)NCCCN2CCN(CCCNC(=S)NN=C(C)C=NNC(=S)NCCCN3CCN(CCCNC(=S)NN=C1)CC3)CC2 |  | > 100 µM |  | > 100 µM |  | > 100 µM |  | > 100 µM |  | > 100 µM |  | > 100 µM |  | > 100 µM |  | > 100 µM |  | > 100 µM |  | > 100 µM
7 | CC(C)N(Cc1ccc(F)cc1)c1ccc(CO)c(Cl)c1 | 12.1 µM | 33.4 µM | 1030 nM | 7.17 µM | 5.23 µM | 20.7 µM | 47.9 nM | 0.266 µM | 468 nM | 12.9 µM | 3310 nM | 21.8 µM | 11.3 µM | 26.7 µM | 250 nM | 11.8 µM | 13.4 µM | 26.5 µM | 732 nM | 14.2 µM
8 | c1ccc(-c2csc3ncn4cnnc4c23)cc1 |  | > 100 µM |  | > 100 µM |  | > 100 µM |  | > 100 µM |  | > 100 µM |  | > 100 µM |  | > 100 µM |  | > 100 µM |  | > 100 µM |  | > 100 µM
9 | COc1c(OC(C)C)cc2cc(O)c(C(=O)NC3Cc4ccc(c(Cl)n4)O[C@@H]4C=C5C#C/C(=C\C#CC6OC56C4OC4CC(C)(O)C(O)C(C)O4)C(OC4CC(O)C(N(C)C)C(C)O4)COC3=O)cc2c1OC (stereo not given in full) | 4.34 µM and 0.0317 µg/mL | > 36.3 µM and 5.33 µg/mL | > 36.3 µM and 0.345 µg/mL | > 36.3 µM and 13.6 µg/mL | > 36.3 µM and 9.57 µg/mL | > 36.3 µM and 37.5 µg/mL | > 36.3 µM and 37.5 µg/mL | > 36.3 µM and 37.5 µg/mL | > 36.3 µM and 0.823 µg/mL | > 36.3 µM and 37.5 µg/mL | 6.32 µM and 0.296 µg/mL | > 36.3 µM and 1.79 µg/mL | 29.6 µM and 1.25 µg/mL | > 36.3 µM and 15.8 µg/mL | 9.97 µM and 0.523 µg/mL | > 36.3 µM and 6.24 µg/mL | 14.4 µM and 0.372 µg/mL | > 36.3 µM and 5.29 µg/mL | > 36.3 µM and 6.42 µg/mL | > 36.3 µM and 37.5 µg/mL
10 | O=S(=O)(O)c1ccc2cc3nn(-c4ccc(/C=C/c5ccc(-n6nc7cc8ccc(S(=O)(=O)O)cc8cc7n6)cc5S(=O)(=O)O)c(S(=O)(=O)O)c4)nc3cc2c1 | 30.8 µM | > 100 µM | 74000 nM | > 100 µM | 6.21 µM | > 100 µM | 27000 nM | > 100 µM | 61000 nM | > 100 µM | > 100000 nM | > 100 µM | 78.4 µM | > 100 µM | > 100000 nM | > 100 µM | > 100 µM | > 100 µM | 26100 nM | > 100 µM
